# Assay results reported in publication PMC3773979 (Biochemistry, 2010).
# Substitutions are numbered along the chain they refer to. Like-named read-outs stand apart in the source and are kept apart here. Marks after values point to notes of the source that are not given here.
# What was measured:
# S. pneumoniae DHFR [1] = target: T1, S. pneumoniae DHFR (Streptococcus pneumoniae serotype 4, UniProt Q54801, A78V/I100L/K60Q/V77A); test: Stopped-flow binding kinetics; details: MTEN buffer, 25 °C, relaxation method
# T1 sequence (Q54801 1-168 K60Q/V77A/A78V/I100L): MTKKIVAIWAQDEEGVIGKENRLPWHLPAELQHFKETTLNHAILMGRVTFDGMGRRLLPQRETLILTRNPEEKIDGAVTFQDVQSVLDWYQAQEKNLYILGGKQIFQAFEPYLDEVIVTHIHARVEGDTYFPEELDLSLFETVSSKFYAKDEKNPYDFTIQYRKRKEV
# E. coli DHFR [2] = details: cited from earlier work
# E. coli DHFR [3] = details: cited from earlier work; remark: listed apart in the source
# Sp9 mutant DHFR [4] = target: T2, Sp9 mutant DHFR (Streptococcus pneumoniae serotype 4, UniProt Q54801, A149T/E133A/H26Y/I100V/Q81H/Q91S); test: Equilibrium fluorescence quenching titration, Sp9; format: binding; details: read-out: Kd (NADPH), pH 7.0, MTEN buffer
# T2 sequence (Q54801 1-168 H26Y/Q81H/Q91S/I100V/E133A/A149T): T1 sequence (Q54801 1-168 K60Q/V77A/A78V/I100L) with H26Y, Q60K, A77V, V78A, Q81H, Q91S, L100V, E133A, A149T
# S. pneumoniae DHFR [5] = target: T1, S. pneumoniae DHFR; test: Equilibrium fluorescence quenching titration, spDHFR; format: binding; details: read-out: Kd (NADPH), pH 7.0, MTEN buffer
# E. coli DHFR (wt) = details: read-out: Kd (NADPH); pH 7.0; cited from earlier work
# Sp9 mutant DHFR [6] = target: Sp9 mutant DHFR (Streptococcus pneumoniae serotype 4, UniProt Q54801, A149T/E133A/H26Y/I100V/Q81H/Q91S); details: pH 7.0, MTEN buffer, 25 °C
# S. pneumoniae DHFR [7] = target: T1, S. pneumoniae DHFR; details: pH 7.0, MTEN buffer, 25 °C
# Bacterial DHFRs = details: cited from earlier work
smiles,measurement,setting,value
"NC(=O)C1=CN([C@@H]2O[C@H](COP(=O)(O)OP(=O)(O)OC[C@H]3O[C@@H](n4cnc5c(N)ncnc54)[C@H](OP(=O)(O)O)[C@@H]3O)[C@@H](O)[C@H]2O)C=CC1 [NADPH, nicotinamide adenine dinucleotide phosphate (reduced form)]",koff (NADPH),S. pneumoniae DHFR [1],18.0 ± 3.2 s⁻¹
same,kon (NADPH),S. pneumoniae DHFR [1],11.9 ± 1.4 μM ^−1s^−1
same,Km,E. coli DHFR [2]; read-out: KM (NADPH),4.8 µM
same,koff (NADPH),E. coli DHFR [3],3.5 ^* s^−1
same,kon (NADPH),E. coli DHFR [3],20.0 ^* μM ^−1s^−1
same,Kd,Sp9 mutant DHFR [4],160 ± 58 nM
same,Kd,S. pneumoniae DHFR [5],210 ± 13 nM
same,Kd,E. coli DHFR (wt),330 nM
same,Km,Sp9 mutant DHFR [6]; read-out: KM (NADPH),0.75 ± 0.3 µM
same,Km,S. pneumoniae DHFR [7]; read-out: KM (NADPH),15.7 ± 4.6 µM
COc1cc(Cc2cnc(N)nc2N)cc(OC)c1OC [Trimethoprim],TMP binding,Bacterial DHFRs; bacterial DHFRs,0.08 nM
same,tighter binding to bacterial DHFRs than human DHFR,Bacterial DHFRs; bacterial versus human DHFR,2500 fold
"Nc1nc(=O)c2c([nH]1)NCC(CNc1ccc(C(=O)N[C@@H](CCC(=O)O)C(=O)O)cc1)=N2 [H2F, 7,8-dihydrofolate]",Km,E. coli DHFR [2]; read-out: KM (H2F),0.7 µM
same,Km,Sp9 mutant DHFR [6]; read-out: KM (H2F),< 0.63 µM
same,Km,S. pneumoniae DHFR [7]; read-out: KM (H2F),4.4 ± 0.95 µM
